For this experiment, the system named is Erysiphe graminis. Briefly: Test for preventive effect on wheat powdery mildew. Conditions: wheat (Norin-61-go) seedlings, 500 ppm active ingredient, preventive treatment; diseased area of first leaves 10 days after inoculation with Erysiphe graminis. The class given is in vivo. Here is the method: Test for Preventive Effect on Wheat Powdery Mildew 9 Wheat seeds (variety: Norin-61-go) were sown in each 9 cm×9 cm polyvinyl chloride pot, grown in a greenhouse for 8 days, then treated with 10 ml per pot of aqueous solutions of wettable powders prepared in accordance with Formulation Example 2, at a concentration of 500 ppm in terms of the active ingredients and dried in the air. Then, the seedlings were inoculated with Erysiphe graminis spores by sprinkle over the plant and placed in a greenhouse of from 20 to 25° C. 10 days after the inoculation, the total diseases area of the first leaves in each pot was observed and evaluated on the basis of the standards shown in Table 67. [table]

For `CCOc1nc(OCC)nc(-n2c(C)nc3cc(Cl)ccc32)n1` [Compound I-514], the Biological effectiveness result is reported as “A (No diseased area)”.

Turning to `CCc1cc(CC)nc(-n2c(C)nc3cc(C)ccc32)n1` [Compound I-1095], the Biological effectiveness result is on record as “A (No diseased area)”.

As for `COc1nc(OC)nc(-n2cnc3cc(C(C)C)ccc32)n1` [Compound I-136], the Biological effectiveness result is recorded as “B (Diseased area of less than 25%)”.

For `C=CCOc1cc(C)nc(-n2c(C)nc3ccccc32)n1` [Compound I-885], the Biological effectiveness result is “B (Diseased area of less than 25%)”.

As for `COc1cc(OC)nc(-n2c(C(F)(F)F)nc3ccccc32)n1` [Compound I-26], the Biological effectiveness entry is “A (No diseased area)”.

For `COc1nc(OC)nc(-n2c(C(F)(F)F)nc3cc(C(C)(C)C)ccc32)n1` [Compound I-316], the Biological effectiveness entry was “B (Diseased area of less than 25%)”.

Regarding `COc1cc(OC)nc(-n2c(C(F)(F)C(F)(F)F)nc3ccccc32)n1` [Compound I-27], the Biological effectiveness entry was “B (Diseased area of less than 25%)”.

Take `CCc1ccc2c(c1)nc(C(F)(F)F)n2-c1nc(OC)nc(OC)n1` [Compound I-313]: the Biological effectiveness entry is listed as “A (No diseased area)”.

On to `COc1nc(OC)nc(-n2cnc3cc(Br)ccc32)n1` [Compound I-131], for which the Biological effectiveness result is on record as “A (No diseased area)”.

For the compound `CCc1cc(CC)nc(-n2cnc3ccccc32)n1` [Compound I-1093], the Biological effectiveness result is reported as “A (No diseased area)”.

On to `COc1cc(OC)nc(-n2c(N(C)C)nc3ccccc32)n1` [Compound I-30], for which the Biological effectiveness entry is “B (Diseased area of less than 25%)”.

For `COc1nc(OC)nc(-n2c(C(F)(F)F)nc3cc(I)ccc32)n1` [Compound I-327], the Biological effectiveness result is recorded as “A (No diseased area)”.

Take `COc1nc(OC)nc(-n2c(C(F)(F)F)nc3ccccc32)n1` [Compound I-66]: the Biological effectiveness entry is given as “A (No diseased area)”.

In the case of `COc1cc(OC)nc(-n2c(SC)nc3cc(C)ccc32)n1` [Compound I-389], the Biological effectiveness result is recorded as “B (Diseased area of less than 25%)”.

As for `CCc1ccc2c(c1)ncn2-c1nc(OC)nc(OC)n1` [Compound I-134], the Biological effectiveness entry was “A (No diseased area)”.

As for `CCOc1cc(OCC)nc(-n2cnc3cc(C)ccc32)n1` [Compound I-482], the Biological effectiveness result is recorded as “A (No diseased area)”.

As for `COCc1nc2cc(Cl)ccc2n1-c1nc(OC)nc(OC)n1` [Compound I-377], the Biological effectiveness entry is on record as “A (No diseased area)”.

Consider `COc1cc(OC)nc(-n2c(C(Cl)(Cl)Cl)nc3cc(Cl)ccc32)n1` [Compound I-400], for which the Biological effectiveness entry is “A (No diseased area)”.

On to `COc1ccnc(-n2c(C(F)(F)F)nc3cc(C)ccc32)n1` [Compound I-683], for which the Biological effectiveness entry was “A (No diseased area)”.

As to `COc1cc(OC)nc(-n2c(C)nc3ccc(C(F)(F)F)cc32)n1` [Compound I-203], the Biological effectiveness result is “B (Diseased area of less than 25%)”.

Take `COc1ccnc(-n2cnc3cc(C)ccc32)n1` [Compound I-670]: the Biological effectiveness entry was “B (Diseased area of less than 25%)”.

Consider `CNc1nc2ccccc2n1-c1nc(OC)cc(OC)n1` [Compound I-29], for which the Biological effectiveness entry was “B (Diseased area of less than 25%)”.

Consider `COc1cc(OC)nc(-n2c(Cl)nc3cc(C(F)(F)F)ccc32)n1` [Compound I-259], for which the Biological effectiveness result is given as “A (No diseased area)”.

`CCOc1cc(OCC)nc(-n2c(C(F)(F)F)nc3ccccc32)n1` [Compound I-465]: the Biological effectiveness entry was “B (Diseased area of less than 25%)”.

Take `COc1nc(C)nc(-n2c(Cl)nc3cc(C)ccc32)n1` [Compound I-758]: the Biological effectiveness entry is reported as “A (No diseased area)”.

For the compound `CSc1nc(SC)nc(-n2c(C)nc3cc(Cl)ccc32)n1` [Compound I-1043], the Biological effectiveness entry was “A (No diseased area)”.

For the compound `CCOc1cc(OCC)nc(-n2c(Cl)nc3cc(C)ccc32)n1` [Compound I-530], the Biological effectiveness entry is reported as “A (No diseased area)”.

Turning to `CCCOc1cc(C)nc(-n2c(Cl)nc3cc(OC)ccc32)n1` [Compound I-818], the Biological effectiveness entry is given as “B (Diseased area of less than 25%)”.

In the case of `COc1nc(OC)nc(-n2cnc3cc(C)c(C)cc32)n1` [Compound I-176], the Biological effectiveness entry is given as “A (No diseased area)”.

Turning to `COc1nc(OC)nc(-n2c(C)nc3ccc(C)cc32)n1` [Compound I-242], the Biological effectiveness result is recorded as “A (No diseased area)”.

Regarding `COc1cc(OC)nc(-n2c(C)nc3cc(Cl)c(Cl)cc32)n1` [Compound I-209], the Biological effectiveness entry is “B (Diseased area of less than 25%)”.

In the case of `CCCc1cc(OC)nc(-n2c(Cl)nc3ccccc32)n1` [Compound I-960], the Biological effectiveness result is “A (No diseased area)”.

For the compound `COc1nc(OC)nc(-n2cnc3ccccc32)n1` [Compound I-40], the Biological effectiveness entry is given as “B (Diseased area of less than 25%)”.

On to `COc1nc(OC)nc(-n2c(C)nc3cc(C#N)ccc32)n1` [Compound I-239], for which the Biological effectiveness result is listed as “A (No diseased area)”.

Take `CCCc1cc(OC)nc(-n2c(C)nc3ccccc32)n1` [Compound I-959]: the Biological effectiveness entry is reported as “A (No diseased area)”.

Turning to `CNc1nc2cc(Cl)ccc2n1-c1nc(OC)nc(OC)n1` [Compound I-375], the Biological effectiveness result was “A (No diseased area)”.

In the case of `COc1cc(OC)nc(-n2c(N)nc3ccc(C)cc32)n1` [Compound I-366], the Biological effectiveness result is “A (No diseased area)”.

As to `COc1cc(OC)nc(-n2c(C)nc3ccc(F)cc32)n1` [Compound I-200], the Biological effectiveness entry was “A (No diseased area)”.

With `CCOc1cc(C)nc(-n2cnc3cc(C)ccc32)n1` [Compound I-772], the Biological effectiveness result was “A (No diseased area)”.

As for `COc1cc(OC)nc(-n2c(C)nc3cc(C(=O)c4ccccc4)ccc32)n1` [Compound I-195], the Biological effectiveness result is reported as “B (Diseased area of less than 25%)”.

Consider `CCOc1cc(OCC)nc(-n2c(C)nc3ccc(C(F)(F)F)cc32)n1` [Compound I-510], for which the Biological effectiveness result is reported as “A (No diseased area)”.

Turning to `COc1nc(OC)nc(-n2c(SC)nc3cc(Cl)ccc32)n1` [Compound I-394], the Biological effectiveness result is given as “A (No diseased area)”.

Consider `CCc1cc(C)nc(-n2c(C)nc3cc(Cl)ccc32)n1` [Compound I-1088], for which the Biological effectiveness result was “A (No diseased area)”.

Take `CCOc1cc(OCC)nc(-n2cnc3cc(F)ccc32)n1` [Compound I-479]: the Biological effectiveness entry is listed as “A (No diseased area)”.

As for `Cc1cc(OC(C)C)nc(-n2cnc3ccccc32)n1` [Compound I-839], the Biological effectiveness result is reported as “A (No diseased area)”.

Consider `COc1cc(OC)nc(-n2cnc3cc(C)c(C)cc32)n1` [Compound I-122], for which the Biological effectiveness result is listed as “B (Diseased area of less than 25%)”.

On to `COc1cc(OC)nc(-n2cnc3cc(C#N)ccc32)n1` [Compound I-111], for which the Biological effectiveness entry is recorded as “B (Diseased area of less than 25%)”.

As for `CCOc1nc(OCC)nc(-n2cnc3cc(Br)ccc32)n1` [Compound I-490], the Biological effectiveness entry is “A (No diseased area)”.

With `COc1ccnc(-n2c(C(F)(F)F)nc3cc(Cl)ccc32)n1` [Compound I-682], the Biological effectiveness result is recorded as “A (No diseased area)”.

`COc1cc(OC)nc(-n2c(Br)nc3ccccc32)n1` [Compound I-3]: the Biological effectiveness entry is reported as “A (No diseased area)”.

As to `COc1cc(OC)nc(-n2c(Cl)nc3ccc(Cl)cc32)n1` [Compound I-271], the Biological effectiveness entry is recorded as “A (No diseased area)”.

On to `CCOc1nc(OCC)nc(-n2c(C(F)(F)F)nc3cc(OC)ccc32)n1` [Compound I-544], for which the Biological effectiveness result is “A (No diseased area)”.

For `C=CCOc1cc(C)nc(-n2cnc3ccccc32)n1` [Compound I-883], the Biological effectiveness entry was “A (No diseased area)”.

`CCOc1nc(OCC)nc(-n2c(C(F)(F)F)nc3cc(C)ccc32)n1` [Compound I-543]: the Biological effectiveness result is listed as “A (No diseased area)”.

Regarding `COc1nc(OC)nc(-n2c(C(Cl)(Cl)Cl)nc3cc(Cl)ccc32)n1` [Compound I-405], the Biological effectiveness entry was “A (No diseased area)”.

For the compound `CCCc1cc(OC)nc(-n2c(C)nc3ccc(Cl)cc32)n1` [Compound I-967], the Biological effectiveness entry is on record as “A (No diseased area)”.

With `COc1nc(-c2ccccc2)nc(-n2c(C)nc3cc(C)ccc32)n1` [Compound I-1058], the Biological effectiveness result is “A (No diseased area)”.

Take `COc1cc(OC)nc(-n2c(C)nc3cc(Br)ccc32)n1` [Compound I-185]: the Biological effectiveness entry is recorded as “A (No diseased area)”.

`C#CCOc1cc(C)nc(-n2cnc3cc(C)ccc32)n1` [Compound I-895]: the Biological effectiveness result is “B (Diseased area of less than 25%)”.

Turning to `C=CCOc1nc(OCC=C)nc(-n2c(C)nc3cc(Cl)ccc32)n1` [Compound I-601], the Biological effectiveness entry is reported as “A (No diseased area)”.

Turning to `COc1cc(OC)nc(-n2cnc3cc(F)ccc32)n1` [Compound I-82], the Biological effectiveness result is given as “A (No diseased area)”.

As for `C#CCOc1cc(C)nc(-n2c(N)nc3cc(C)ccc32)n1` [Compound I-904], the Biological effectiveness entry is recorded as “B (Diseased area of less than 25%)”.

As for `COc1cc(OC)nc(-n2c(C(F)(F)F)nc3cc(F)ccc32)n1` [Compound I-295], the Biological effectiveness result is reported as “A (No diseased area)”.

Regarding `COc1nc(OC)nc(-n2c(C)nc3ccccc32)n1` [Compound I-45], the Biological effectiveness result was “A (No diseased area)”.

As for `COc1cc(OC)nc(-n2cnc3cc(Cl)ccc32)n1` [Compound I-83], the Biological effectiveness result is listed as “B (Diseased area of less than 25%)”.

Take `CCc1cc(CC)nc(-n2c(C)nc3ccc(Cl)cc32)n1` [Compound I-1098]: the Biological effectiveness entry is “A (No diseased area)”.

The values are drawn from US6872729B2, “Pyrimidinylbenzimidazole and triazinylbenzimidazole derivatives and agricultural/horticultural fungicides” (Kumiai Chemical Industry Co., Ltd., priority 1998, dated 2005).
